IC50, ED50 and ED₅₀ data for three molecules are collected here from patent EP0367895A1, “Pyrimidinyl-substituted hydroxyacids, lactones and esters and pharmaceutical compositions containing them” (SANDOZ AG, priority 1988, dated 1990).

Assay [1] concerns the target T1, 3-hydroxy-3-methylglutaryl coenzyme A (HMG-CoA) reductase (Rattus norvegicus, UniProt P51639).
T1 construct: In vitro microsomal assay of; from tissue; host or cells: Microsomes; it is liver according to own knowledge of EP 114 027
T1 sequence (P51639 1-887): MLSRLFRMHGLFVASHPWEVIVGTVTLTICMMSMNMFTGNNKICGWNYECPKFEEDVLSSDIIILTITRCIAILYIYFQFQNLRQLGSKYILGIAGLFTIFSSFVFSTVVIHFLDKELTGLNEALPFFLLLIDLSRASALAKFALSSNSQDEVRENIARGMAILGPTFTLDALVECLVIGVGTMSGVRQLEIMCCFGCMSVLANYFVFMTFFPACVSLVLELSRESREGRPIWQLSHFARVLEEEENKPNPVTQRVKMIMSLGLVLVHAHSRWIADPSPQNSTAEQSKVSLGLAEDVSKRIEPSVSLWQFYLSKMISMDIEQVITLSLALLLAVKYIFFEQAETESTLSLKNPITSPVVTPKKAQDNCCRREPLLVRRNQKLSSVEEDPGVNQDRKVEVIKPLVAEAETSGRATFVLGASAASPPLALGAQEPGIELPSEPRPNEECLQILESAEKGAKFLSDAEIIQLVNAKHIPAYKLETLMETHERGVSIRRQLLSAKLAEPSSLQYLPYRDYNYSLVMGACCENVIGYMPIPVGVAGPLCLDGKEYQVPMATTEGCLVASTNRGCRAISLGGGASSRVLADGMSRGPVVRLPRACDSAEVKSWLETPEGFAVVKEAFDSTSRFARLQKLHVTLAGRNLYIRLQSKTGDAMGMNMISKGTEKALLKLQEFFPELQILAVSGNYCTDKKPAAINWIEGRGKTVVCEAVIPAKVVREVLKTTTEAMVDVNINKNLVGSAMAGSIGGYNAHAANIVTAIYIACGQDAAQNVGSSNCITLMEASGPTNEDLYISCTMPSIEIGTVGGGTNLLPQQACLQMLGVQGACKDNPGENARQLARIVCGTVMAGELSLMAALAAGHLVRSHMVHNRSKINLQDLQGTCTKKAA
As to the kind of experiment: Test A: in vitro microsomal assay of HMG-CoA reductase inhibition (as described in EP 114 027). Format: biochemical. The following applies: concentration calculated to produce a 50% inhibition of HMG-CoA reductase activity; tests run between 0.05 µM and 1000 µM; read-out: IC₅₀. On the procedure: Test A. In vitro microsomal assay of 3-hydroxy-3-methylglutaryl coenzyme A (HMG-CoA) reductase inhibition: as described in EP 114 027:
IC₅₀ is the concentration of the test substance in the assay system calculated to produce a 50% inhibition of HMG-CoA reductase activity. The tests are run at concentrations of test substance between 0.05 µM and 1000 µM.

The test system of assay [2] is 3β-hydroxysterol synthesis. As to the kind of experiment: Test B: in vivo cholesterol biosynthesis inhibition test (as described in EP 114 027). The following applies: dose calculated to produce a 50% inhibition of 3β-hydroxysterol synthesis, test doses between 0.01 mg/kg and 10 mg/kg; for ED50: read-out: ED₅₀. On the procedure: Test B. In vivo cholesterol biosynthesis inhibition test: as described in EP 114 027:
ED₅₀ is the dose of the test substance calculated to produce a 50% inhibition of 3β-hydroxysterol synthesis. The studies are run to test doses of between 0.01 mg/kg and 10 mg/kg.

With `CC(C)c1nc(N(C)C)nc(-c2ccc(F)cc2)c1/C=C/[C@@H](O)C[C@@H](O)CC(=O)[O-].[Na+]` [Example 1b), sodium (3R,5S)-[E]-7-[4-(4-fluoro-phenyl)-6-(1-methylethyl)-2-(dimethylamino)pyrimidin-5-yl]-3,5-dihydroxy-6-heptenoate], the IC50 in assay [1] is 26 nM. Besides, the ED50 in assay [2] was 0.028 mg/kg.

As for `CC(C)c1nc(N(C)C)nc(-c2ccncc2)c1/C=C/[C@@H](O)C[C@@H](O)CC(=O)O` [Example 11d], the IC50 in assay [1] was 39 nM. For the same molecule, in assay [2], the ED50 was 0.04 mg/kg.

Regarding Mevinolin [reference compound], the ED₅₀ in assay [2] is on record as 0.41 mg/kg.
